Test [1] relates to T. b. brucei (GVR35-VSL2). The test can be described thus: Meningoencephalic mouse model (stage 2 HAT efficacy model, GVR35) with bioluminescence imaging. It counts as in vivo. As to the method: The GVR35 mouse CNS model mimics the second (meningoencephalic) stage of African trypanosomiasis. Female CD1 mice (~8 weeks old, from Charles River) were injected intraperitoneally (i.p.) with 3 × 10^4 T. b. brucei (GVR35-VSL2) bloodstream-form parasites. As controls, a group of three untreated mice and another group of three mice treated with diminazene aceturate (DA) were included. […] Mice treated with DA usually relapse after 42 days post-infection. […]
Blood parasitemia was quantified weekly from day 21/22, by microscopy of blood from the tail vein. Mice were imaged for bioluminescence using an in vivo imaging system (IVIS) prior to treatment on day 21/22, and weekly after treatment, as described previously. Briefly, mice, in groups of three, were injected i.p. with 150 mg of D-luciferin (Promega) per kilogram body weight in PBS and imaged after 10 min, using an IVIS Spectrum (PerkinElmer, Waltham, Massachusetts MA, USA). Living Image Software (PerkinElmer) was used for acquisition and analysis of bioluminescence imaging data. Bioluminescence in the same rectangular region of interest (ROI) on whole-body mouse images was quantified and is shown in total flux (photons per second). Images were cropped to the ROIs and composites of images from representative mice are shown. Uncured mice were euthanized within 1 or 2 days of parasite detection in the blood. Cured mice were euthanized between day 92 and 101 post-infection. All the results from the individual experiments were reported as number of mice cured over total number of mice treated. A Kaplan–Meier plot was used for representing the number of mice cured at different treatment doses.

The test system of test [2] is T. brucei PSMB4^WT. The experiment in a line: Growth inhibition of T. brucei expressing wild-type 20S proteasome β4 subunit. Format: cell-based. The following applies: Trypanosoma brucei, read-out: T. brucei PSMB4^WT EC50. On the procedure: (§1) For determination of 50% growth inhibition, all compounds were dissolved in DMSO, and 200 nL of threefold serially diluted compounds were added into solid-bottom 384-well white plates (Greiner Bio-One, Kremsmunster, Austria) by an Echo 555 acoustic liquid-handling system. Forty microliters of 10^4 cells/mL of T. b. brucei parasites was added into each well, and the plates were incubated in a 5% CO2 incubator at 37 °C for 48 h. Viability of parasites were determined by measuring intracellular ATP levels, using CellTiter-Glo (CTG) luminescent cell viability reagent (Promega, Madison, Wisconsin WI, USA). The EC50 values were determined by using GraphPad Prism software. Growth inhibition assays for all clinical isolates were carried out as described earlier. All experiments had two technical replicates and three biological replicates. Appropriate statistical tests were used for evaluating significance, and mean ± SEM is represented in the tables.

Test [3] has as its system T. brucei PSMB4^F24L. The experiment in a line: Growth inhibition of T. brucei expressing F24L mutant 20S proteasome β4 subunit. It counts as cell-based, Trypanosoma brucei. On the procedure: as §1
Test [4] has as its system T. b. gambiense. The experiment in a line: Growth inhibition of T. b. gambiense strains. Format: cell-based. The note with it: Trypanosoma brucei, mean ± SD.
The subject of test [5] is T. b. rhodesiense. The test can be described thus: Growth inhibition of T. b. rhodesiense strains. It counts as cell-based. The note with it: Trypanosoma brucei, mean ± SD.
Test [6] concerns T. b. brucei. The test can be described thus: Growth inhibition of T. b. brucei strains BS221, BS221 (P2 KO), STIB950. Format: cell-based. The following applies: Trypanosoma brucei, mean ± SD. As to the method: The T. b. brucei strain Lister 427 (bloodstream form) parasites were continuously grown in complete HMI-9 medium supplemented with 10% Serum Plus and 10% heat-inactivated fetal bovine serum (FBS). All other parasite strains were cultured as described elsewhere.
as §1, with “Appropriate statistical tests were used for evaluating significance, and mean ± SEM is represented in the tables.” left out

For test [7] the following is noted: stage 2 HAT mouse model; cited from earlier work.

Like-named read-outs stand apart in the source and are kept apart here.

In the case of `N=C(N)c1ccc(/N=N/Nc2ccc(C(=N)N)cc2)cc1` [Diminazene, diminazene aceturate, reference compound], in test [1] (40 mg/kg QD), the “% Cured” value is given as 0% and the “Mean Day of Relapse” value turned out to be 42 days post infection. The “Mice Cured/Total” value in test [1] (40 mg/kg QD (control compound lacking brain penetration)) is 0/3.

The term EC50 denotes the midpoint of the concentration-response curve. As to `CC(C)C[C@H](NC(=O)[C@H](Cc1ccccc1)NC(=O)c1cnccn1)B(O)O` [Bortezomib, reference compound], the EC50 in test [2] stood at 0.94 ± 0.05 nM; in test [3] (Trypanosoma brucei, read-out: T. brucei PSMB4^F24L EC50), 1.1 ± 0.26 nM. In addition, the “Shift in growth inhibition concentration, F24L mutant vs wild-type” value in test [3] is on record as “equipotent”.

Regarding `Nc1nc(N)nc(Nc2ccc([As]3SCC(CO)S3)cc2)n1` (stereo not shown) [Melarsoprol, reference compound], the EC50 turned out to be 7.1 ± 2.7 nM in test [4] (GAMBIENSE / STIB930, read-out: T. b. gambiense EC50, strain STIB930); 10.2 ± 1.9 nM in test [4] (GAMBIENSE, read-out: T. b. gambiense EC50, strain K048); 7.7 ± 3.1 nM in test [4] (GAMBIENSE, read-out: T. b. gambiense EC50, strain R130); 3.9 ± 2 nM in test [5] (RHODESIENSE / STIB900, read-out: T. b. rhodesiense EC50, strain STIB900); 95.5 ± 24 nM in test [5] (RHODESIENSE / STIB900, read-out: T. b. rhodesiense EC50, strain STIB900 Mel^R (melarsoprol-resistant)); 46.8 ± 19 nM in test [5] (RHODESIENSE / STIB900, read-out: T. b. rhodesiense EC50, strain STIB900 Pent^R (pentamidine-resistant)). Besides, the EC50 in test [6] (STIB950, read-out: T. b. brucei EC50, strain STIB950) was determined as 16.9 ± 8.8 nM; in test [6] (read-out: T. b. brucei EC50, strain BS221 (P2 KO)), 37.7 ± 14.8 nM; in test [6] (read-out: T. b. brucei EC50, strain BS221) it was 4.7 ± 1.8 nM.

With `CC1(C)OB(O)c2cc(NC(=O)c3ccc(F)cc3C(F)(F)F)ccc21` [acoziborole], the Curative dose in test [7] is 25 mg/kg.

As to `CSc1ccc(OCc2ncc([N+](=O)[O-])n2C)cc1` [fexinidazole], the Curative dose in test [7] is given as 200 mg/kg.

Turning to `N=C(N)c1ccc(OCCCCCOc2ccc(C(=N)N)cc2)cc1` [Pentamidine, reference compound], the EC50 in test [4] (GAMBIENSE / STIB930, strain STIB930, read-out: T. b. gambiense EC50) is 1.4 ± 0.9 nM; in test [4] (GAMBIENSE, strain K048, read-out: T. b. gambiense EC50), 33.9 ± 16 nM; in test [4] (GAMBIENSE, strain R130, read-out: T. b. gambiense EC50) it was 13.5 ± 4 nM; in test [5] (RHODESIENSE / STIB900, strain STIB900 Mel^R (melarsoprol-resistant), read-out: T. b. rhodesiense EC50) it was 217 ± 86 nM; in test [5] (RHODESIENSE / STIB900, strain STIB900 Pent^R (pentamidine-resistant), read-out: T. b. rhodesiense EC50), 203 ± 54 nM; in test [6] (STIB950, strain STIB950, read-out: T. b. brucei EC50), 0.5 ± 0.2 nM. The EC50 in test [6] (strain BS221 (P2 KO), read-out: T. b. brucei EC50) came out at 3.1 ± 0.4 nM; in test [6] (strain BS221, read-out: T. b. brucei EC50), 0.3 ± 0.1 nM.

Values taken from publication PMC7157554, “Anti-Trypanosomal Proteasome Inhibitors Cure Hemolymphatic and Meningoencephalic Murine Infection Models of African Trypanosomiasis” (Tropical Medicine and Infectious Disease, 2020).
